Results from paper PMC7058083, “Structural basis of ligand binding modes at the human formyl peptide receptor 2” (Nature Communications, 2020).
Numbering of substitutions follows the chain as printed.

What was measured:
Test in all cases: Saturation binding of WK(FITC)YMVm, flow cytometry on HEK293F cells
[1] = biological target: T1, wild-type (WT) and mutant FPR2 (Homo sapiens, UniProt P25090, L268A); conditions: FPR2 L268A
T1 construct: expressed in transfected cells; host or cells: HEK293F
T1 sequence (P25090 1-351 L268A): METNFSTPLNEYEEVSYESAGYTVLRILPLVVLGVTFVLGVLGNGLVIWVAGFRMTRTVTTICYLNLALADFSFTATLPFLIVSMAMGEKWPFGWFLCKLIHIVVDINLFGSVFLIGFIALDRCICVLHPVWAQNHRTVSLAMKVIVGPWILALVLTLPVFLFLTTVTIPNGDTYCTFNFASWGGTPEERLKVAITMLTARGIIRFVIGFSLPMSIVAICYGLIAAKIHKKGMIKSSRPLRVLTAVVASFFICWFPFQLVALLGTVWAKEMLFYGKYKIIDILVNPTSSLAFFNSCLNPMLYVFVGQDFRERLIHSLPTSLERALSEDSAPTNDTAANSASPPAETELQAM
Procedure: (§1) Flag-tagged wild-type and mutant FPR2s were cloned into the pTT5 vector and expressed in HEK293F cells. The cells were harvested, and washed with Hanks’ Balanced Salt Solution (HBSS) buffer supplemented with 0.5% bovine serum albumin and 20 mM HEPES, pH 7.4. The cells were then resuspended in the same buffer to the final concentration of 1 × 10^6 cells per ml. The cell-surface expression was measured as mentioned above. […] Mean fluorescent intensity of each well was then read by a FCM (flow cytometry) reader (Millipore). […] For competitive binding of fMLFK, cells were plated in 96-well plates (100,000 cells per well), and incubated with WK(FITC)YMVm at 4 °C for 1 h. The following concentrations of WK(FITC)YMVm were used: 10 nM (wild type, L81^2.60F, E89G, and V105^3.32A), 30 nM (D281^7.32G), 40 nM (H102^3.29F, V160^4.60A, L268^ECL3A, N285^7.36A, and F292^7.43A), and 100 nM (L164^4.64A and T177A). Then increasing concentrations of fMLFK (100 nM–1 mM) were added, and incubated for another 1 h on ice. Mean fluorescent intensity values were measured by flow cytometry. Data were analyzed using Prism 7.0.

[2] = biological target: T2, wild-type (WT) and mutant FPR2 (Homo sapiens, UniProt P25090, R201F); conditions: mutation R201F
T2 construct: expressed in transfected cells; host or cells: HEK293F
Procedure: as §1

[3] = biological target: T3, wild-type (WT) and mutant FPR2 (Homo sapiens, UniProt P25090, F257Y); conditions: FPR2 F257Y
T3 construct: expressed in transfected cells; host or cells: HEK293F
Procedure: as §1

[4] = biological target: T4, wild-type (WT) and mutant FPR2 (Homo sapiens, UniProt P25090, E89G); conditions: FPR2 E89G
T4 construct: expressed in transfected cells; host or cells: HEK293F
T4 sequence (P25090 1-351 E89G): T1 sequence (P25090 1-351 L268A) with E89G, A268L
Procedure: as §1

[5] = biological target: T5, wild-type (WT) and mutant FPR2 (Homo sapiens, UniProt P25090, L164A); conditions: FPR2 L164A
T5 construct: expressed in transfected cells; host or cells: HEK293F
T5 sequence (P25090 1-351 L164A): T1 sequence (P25090 1-351 L268A) with L164A, A268L
Procedure: as §1

[6] = biological target: T6, wild-type (WT) and mutant FPR2 (Homo sapiens, UniProt P25090, V160A); conditions: FPR2 V160A
T6 construct: expressed in transfected cells; host or cells: HEK293F
T6 sequence (P25090 1-351 V160A): T1 sequence (P25090 1-351 L268A) with V160A, A268L
Procedure: as §1

[7] = biological target: T7, wild-type (WT) and mutant FPR2 (Homo sapiens, UniProt P25090, N285A); conditions: FPR2 N285A
T7 construct: expressed in transfected cells; host or cells: HEK293F
T7 sequence (P25090 1-351 N285A): T1 sequence (P25090 1-351 L268A) with A268L, N285A
Procedure: as §1

[8] = biological target: T8, wild-type (WT) and mutant FPR2 (Homo sapiens, UniProt P25090, L198F); conditions: FPR2 L198F
T8 construct: expressed in transfected cells; host or cells: HEK293F
Procedure: as §1

T8 sequence (P25090 whole entry L198F): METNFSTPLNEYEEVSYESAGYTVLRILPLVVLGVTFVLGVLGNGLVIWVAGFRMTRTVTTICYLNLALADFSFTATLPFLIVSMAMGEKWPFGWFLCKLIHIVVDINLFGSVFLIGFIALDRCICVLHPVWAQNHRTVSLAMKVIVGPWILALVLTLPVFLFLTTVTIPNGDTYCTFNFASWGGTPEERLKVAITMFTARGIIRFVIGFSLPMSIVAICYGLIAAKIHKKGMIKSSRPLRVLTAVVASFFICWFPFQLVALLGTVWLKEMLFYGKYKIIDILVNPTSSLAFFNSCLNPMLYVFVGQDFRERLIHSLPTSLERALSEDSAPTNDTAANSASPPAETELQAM
T3 sequence (P25090 whole entry F257Y): as the sequence (P25090 whole entry L198F) above, with F198L, F257Y counted along it
T2 sequence (P25090 whole entry R201F): as the sequence (P25090 whole entry L198F) above, with F198L, R201F counted along it

Q: `CSCC[C@H](NC(=O)[C@H](Cc1ccc(O)cc1)NC(=O)[C@H](CCCCNC(=S)Nc1ccc2c(c1)C(=O)OC21c2ccc(O)cc2Oc2cc(O)ccc21)NC(=O)[C@@H](N)Cc1c[nH]c2ccccc12)C(=O)N[C@H](C(=O)N[C@H](CCSC)C(N)=O)C(C)C` [WK(FITC)YMVm] was tested. Which “Span (% of WT), saturation binding” value [1] did it give?
A: 76 ± 7 % of WT

Q: What about the Kd ([1]; mean ± s.e.m., n=3, SEM) of the same molecule?
A: 0.028 ± 0.01 µM

Q: What about the “WK(FITC)YMVm binding” value [2] of the same molecule?
A: substantially reduced

Q: And the “Span (% of WT), saturation binding” value [3]?
A: 57 ± 6 % of WT

Q: And the Kd ([3]; mean ± s.e.m., n=3, SEM)?
A: 0.154 ± 0.048 µM

Q: And the “Span (% of WT), saturation binding” value [4]?
A: 134 ± 7 % of WT

Q: And the Kd ([4]; mean ± s.e.m., n=3, SEM)?
A: 0.0293 ± 0.006 µM

Q: And the “Span (% of WT), saturation binding” value [5]?
A: 85 ± 13 % of WT

Q: And the Kd ([5]; mean ± s.e.m., n=3, SEM)?
A: 0.0922 ± 0.0251 µM

Q: What about the “Span (% of WT), saturation binding” value [6] of the same molecule?
A: 30 ± 4 % of WT

Q: And the Kd ([6]; mean ± s.e.m., n=4, SEM)?
A: 0.0361 ± 0.0181 µM

Q: What about the “Span (% of WT), saturation binding” value [7] of the same molecule?
A: 85 ± 13 % of WT

Q: And the Kd ([7]; mean ± s.e.m., n=4, SEM)?
A: 0.0433 ± 0.0153 µM

Q: What about the “Span (% of WT), saturation binding” value [8] of the same molecule?
A: 60 ± 9 % of WT

Q: And the Kd ([8]; mean ± s.e.m., n=3, SEM)?
A: 0.0214 ± 0.0053 µM
